Source: the supplement of paper PMC10307832

Columns and labels:
Test in all cases: relative viability (nuclei count vs DMSO), 5 days (fraction); higher = more cells survive
[1] = compound: C1/C(=C\C2=CC=CS2)/C(=O)/C(=C/C3=CC=CS3)/C1 + O=C(CCCCCCC(=O)Nc1ccccc1)NO [Vorinostat] (partner 1 µM)
In short: (§1)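 Lung cancer cell lines were seeded in 1536-well plates and dosed by pin tool the next day, with either a single drug or a fixed anchor-drug dose combined with five library-drug doses (not always all listed) spaced in √10 steps. Five days later, one step fixed the cells and stained their nuclei (final 0.05% Triton X-100, 1% formaldehyde, 1 ug/ml Hoechst), and nuclei were counted on 4× images. Relative viability is the nuclei count in treated wells divided by the count in vehicle wells, and each value is the median of duplicate plates.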

[2] = compound: C1/C(=C\C2=CC=CS2)/C(=O)/C(=C/C3=CC=CS3)/C1 + CC1(C)CCC(c2ccc(Cl)cc2)=C(CN2CCN(c3ccc(C(=O)NS(=O)(=O)c4ccc(N[C@H](CCN5CCOCC5)CSc5ccccc5)c(S(=O)(=O)C(F)(F)F)c4)cc3)CC2)C1 [Navitoclax] (partner 0.5 µM)
In short: as §1

TPCA-1 + Vorinostat = compound: C1=CC(=CC=C1C2=CC(=C(S2)NC(=O)N)C(=O)N)F [TPCA-1] + O=C(CCCCCCC(=O)Nc1ccccc1)NO [Vorinostat] (partner 1 µM)
In short: as §1

Cell Line	relative viability ([1]; first compound 0.2 µM)	relative viability ([1]; first compound 0.6325 µM)	relative viability ([1]; first compound 2 µM)	relative viability ([1]; first compound 6.325 µM)	relative viability ([1]; first compound 20 µM)	relative viability ([2]; first compound 0.2 µM)	relative viability ([2]; first compound 0.6325 µM)	relative viability ([2]; first compound 2 µM)	relative viability ([2]; first compound 6.325 µM)	relative viability ([2]; first compound 20 µM)	relative viability (TPCA-1 + Vorinostat; first compound 0.04 µM)	relative viability (TPCA-1 + Vorinostat; first compound 0.1265 µM)	relative viability (TPCA-1 + Vorinostat; first compound 0.4 µM)	relative viability (TPCA-1 + Vorinostat; first compound 1.265 µM)	relative viability (TPCA-1 + Vorinostat; first compound 4 µM)
LCLC-97TM1	0.845	0.818	0.757	0.631	0.66	0.345	0.337	0.367	0.297	0.261	0.844	0.488	0.905	0.365	0.0988
LCLC-103H	0.805	0.842	0.859	0.698	0.765	–	–	–	–	–	0.839	0.764	0.818	0.525	0.363
LK-2	0.255	0.337	0.432	0.324	0.32	0.824	0.956	0.702	0.862	0.89	0.343	0.161	0.287	0.267	0.237
LOU-NH91	1.03	0.934	1.01	0.782	0.973	0.726	0.744	0.724	0.581	0.723	0.937	0.925	0.908	0.851	0.674
LU99A	0.461	0.475	0.462	0.441	0.387	0.734	0.796	0.814	0.788	0.793	0.546	0.463	0.544	0.457	0.316
LXF-289	0.821	0.829	0.772	0.732	0.724	0.939	0.996	0.929	0.862	0.908	0.786	0.819	0.762	0.764	0.42
NCI-H23	0.662	0.628	0.702	0.564	0.591	0.902	0.804	0.944	0.602	0.729	0.392	0.579	0.546	0.526	0.161
NCI-H322M	0.902	0.892	1.03	0.865	0.917	1.32	1.2	1.4	0.587	0.976	0.976	0.89	0.958	0.864	0.431
NCI-H358	0.8	0.814	0.704	0.511	0.773	–	–	–	–	–	0.695	0.576	0.634	0.409	0.168
NCI-H441	0.863	0.676	0.683	0.743	0.78	0.779	0.769	0.523	0.527	0.572	0.776	0.636	0.717	0.577	0.476
NCI-H460	0.859	0.724	0.783	0.398	0.635	1.26	1.34	1.12	–	1.14	0.878	0.686	–	0.682	0.563
NCI-H520	0.767	0.787	0.733	–	0.72	0.98	1.06	1.15	0.856	1	0.72	0.636	0.782	0.605	0.497
NCI-H522	0.967	0.911	0.893	1.01	0.909	–	–	–	–	–	1.03	0.819	1	0.842	0.987
NCI-H596	0.532	0.469	0.609	0.612	0.727	0.987	0.975	0.919	0.956	0.933	0.64	0.613	0.696	0.668	0.616
NCI-H647	0.44	0.539	0.398	0.423	0.774	1.15	1.15	1.1	1.01	1.17	0.48	0.599	0.518	0.312	0.218
NCI-H650	0.432	0.436	0.419	0.413	0.373	–	–	–	–	–	0.414	0.402	0.41	0.308	0.27
NCI-H661	0.845	0.825	0.756	0.638	0.778	–	–	–	–	–	0.739	0.759	0.806	0.754	0.483
NCI-H727	1.23	1.23	1.28	–	1.12	0.528	0.426	0.503	0.302	0.391	1.21	0.947	1.26	1.25	1.31
NCI-H838	0.731	0.709	0.767	0.596	0.657	1.23	1.17	1.14	0.86	1.05	0.752	0.64	0.676	0.648	0.363
NCI-H1299	–	–	–	–	–	1.08	1.08	1.03	0.973	1.05	–	–	–	–	–
NCI-H1355	0.664	0.627	0.705	0.598	0.587	0.958	0.812	0.904	0.853	0.933	0.735	0.603	0.611	0.582	0.553
NCI-H1395	0.668	0.767	1.03	0.744	0.8	1.28	1.65	1.23	1.04	1.15	0.637	0.645	0.856	0.604	0.55
NCI-H1648	0.435	0.408	0.603	0.366	0.297	–	–	–	–	–	0.4	0.486	0.528	0.704	0.631
NCI-H1703	–	–	–	–	–	1.3	1.8	1.32	1.05	1.14	–	–	–	–	–
NCI-H1792	–	–	–	–	–	0.666	0.579	0.743	–	0.624	–	–	–	–	–
NCI-H2342	0.667	0.997	0.85	0.757	0.683	–	–	–	–	–	0.77	0.699	0.681	0.683	0.663
SW 900	0.525	0.485	0.569	0.59	0.558	–	–	–	–	–	–	–	0.515	0.422	0.45
